Molecular target: T1, hA3G (human APOBEC3G) (Homo sapiens, UniProt Q9HC16)
T1 construct: 10067; biotinylated with NHS-biotin 3:1
Experiment: biolayer interferometry (Octet RED, super streptavidin sensors)
Assay type: binding
Conditions: biotinylated hA3G immobilised; 5% DMSO; kinetic constant from kon/koff

T1 sequence (Q9HC16 whole entry): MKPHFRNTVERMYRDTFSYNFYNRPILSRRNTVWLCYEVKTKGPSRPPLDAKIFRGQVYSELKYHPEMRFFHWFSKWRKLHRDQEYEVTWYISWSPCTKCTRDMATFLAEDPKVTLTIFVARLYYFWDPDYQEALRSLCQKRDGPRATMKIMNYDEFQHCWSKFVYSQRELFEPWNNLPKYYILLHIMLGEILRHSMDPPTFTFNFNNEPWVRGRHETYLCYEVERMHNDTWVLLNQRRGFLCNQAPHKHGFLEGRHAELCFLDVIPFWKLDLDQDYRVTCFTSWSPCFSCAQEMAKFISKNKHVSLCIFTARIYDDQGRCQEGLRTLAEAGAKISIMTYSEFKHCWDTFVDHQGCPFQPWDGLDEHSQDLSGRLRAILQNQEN

**Q.** Which “Ligand (hA3G) / KD (M)” value does the source give for IMB-301 here?
**A.** The value was 1.56E − 05 M.
